For this assay, the target named is T1, protein farnesyltransferase (Rattus norvegicus, UniProt Q02293+Q04631).
T1 construct: The enzyme is purified according to Reiss, Y., et al., Cell, 62: 81-88 (1990), utilizing steps one through three; from tissue; host or cells: rat brain
Nature of the assay: Inhibition of farnesyltransferase (scintillation proximity assay, rat brain enzyme, biotin-K Ras B fragment substrate). The assay is classed as biochemical. The following applies: for inhibition at 1 µM: read-out: % inhibition of farnesyltransferase at 1 × 10^-6 M; for inhibition at 1 µM / % inhibition of farnesyltransferase at 1 × 10^-6 M: 1 × 10^-6 M (Table 2); for % inhibition of farnesyltransferase at 1 × 10^-5 M: 1 × 10^-5 M (Table 1); for % inhibition of farnesyltransferase at 1 × 10^-8 M: 1 × 10^-8 M (Table 4). The method, boiled down: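 Enzyme from rat brain, partly purified (steps one to three), assayed by SPA kit using 0.1 mM final biotin-K Ras B peptide as prenyl acceptor rather than biotin-lamin. Activity given as percent inhibition.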

The structures appear in SMILES notation. Counter-ions that a name gives are not always drawn. Like-named read-outs stand apart in the source and are kept apart here.

T1 sequence (Q02293 whole entry, one chain of several): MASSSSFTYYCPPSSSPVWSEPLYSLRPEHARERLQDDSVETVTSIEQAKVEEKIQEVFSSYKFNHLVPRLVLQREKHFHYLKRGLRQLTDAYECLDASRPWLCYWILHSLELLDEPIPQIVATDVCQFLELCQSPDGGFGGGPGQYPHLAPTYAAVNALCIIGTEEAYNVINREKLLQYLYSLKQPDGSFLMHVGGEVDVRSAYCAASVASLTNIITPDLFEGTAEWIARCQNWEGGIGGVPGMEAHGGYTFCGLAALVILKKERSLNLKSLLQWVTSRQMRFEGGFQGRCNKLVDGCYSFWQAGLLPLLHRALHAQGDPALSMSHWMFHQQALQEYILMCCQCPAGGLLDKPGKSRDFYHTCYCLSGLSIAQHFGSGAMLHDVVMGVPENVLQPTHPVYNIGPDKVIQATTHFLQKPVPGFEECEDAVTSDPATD

The term inhibition denotes the relative decrease from the control value, in per cent. Take `CSCC[C@H](NC(=O)c1ccc(CC(Cc2ccccc2)c2ccccc2)cc1-c1ccccc1C)C(=O)O` (stereo partly drawn) [Example 572, N-[4-(2,3-diphenylpropan-1-yl)-2-(2-methylphenyl)benzoyl]methionine lithium salt]: the inhibition at 1 µM was determined as 91%. With `CSCC[C@H](NC(=O)c1ccc(CSc2nc(C)cc(C)n2)cc1-c1ccccc1C)C(=O)O` [Example 743], under “1 × 10^-7 M (Table 3)”, the “% inhibition of farnesyltransferase at 1 × 10^-7 M” value (“% inhibition … at 1 × 10^-7 M” below) is reported as 51%.

As to `CSCC[C@H](NC(=O)c1ccc(CNC(CO)Cc2ccccc2)cc1-c1ccccc1)C(=O)O` (stereo partly drawn) [Example 714], the “% inhibition of farnesyltransferase at 1 × 10^-5 M” value (shortened to “% inhibition … at 1 × 10^-5 M”) is 56%.

Turning to `COc1ccccc1CCC(=O)Nc1ccc(C(=O)N[C@@H](CCSC)C(=O)O)c(-c2ccccc2C)c1` [Example 544], the “% inhibition of farnesyltransferase at 1 × 10^-6 M” value (“% inhibition … at 1 × 10^-6 M” for short) is 35%. Take `CSCC[C@H](NC(=O)c1ccc(COCc2ccc(C)cc2)cc1-c1ccccc1C)C(=O)[O-].[Li+]` [Example 579]: where the note is “1 × 10^-7 M (Table 3)”, the “% inhibition … at 1 × 10^-7 M” value is 92%.

For the compound `CSCC[C@H](NC(=O)c1ccc(CNCC(C)(C)CN(C)C)cc1-c1ccccc1)C(=O)O` [Example 639], the “% inhibition … at 1 × 10^-5 M” value was 44%. Take `CSCC[C@H](NC(=O)c1ccc(COCC2CCOC2)cc1-c1ccccc1)C(=O)O` (stereo partly drawn) [Example 287]: the “% inhibition … at 1 × 10^-6 M” value turned out to be 24%. As to `CSCC[C@H](NC(=O)c1ccc(OCCC2CCCCC2)cc1-c1ccccc1C)C(=O)[O-].[Li+]` [Example 552], the “% inhibition … at 1 × 10^-6 M” value was found to be 88%. For the compound `CCCCN(CCc1ccccc1)Cc1ccc(C(=O)N[C@@H](CCSC)C(=O)O)c(-c2ccccc2C)c1` [Example 928], the “% inhibition of farnesyltransferase at 1 × 10^-8 M” value (“% inhibition … at 1 × 10^-8 M” below) amounted to 84%. Turning to `CSCC[C@H](NC(=O)c1ccc(CNC(Cc2ccccc2)Cc2ccccc2)cc1-c1ccccc1C)C(=O)O` [Example 523], the “% inhibition … at 1 × 10^-7 M” value (1 × 10^-7 M (Table 3)) turned out to be 97%. On to `CSCC[C@H](NC(=O)c1ccc(CNCc2cc(Cl)cc(Cl)c2)cc1-c1ccccc1)C(=O)O` [Example 712], for which the “% inhibition … at 1 × 10^-5 M” value came to 69%. For the compound `CSCC[C@H](NC(=O)c1ccc(CN(CCC2CCCCC2)C(=O)c2ccccc2)cc1-c1ccccc1C)C(=O)O` [Example 762], the “% inhibition … at 1 × 10^-8 M” value stood at 84%. Regarding `CSCC[C@H](NC(=O)c1ccc(CNc2nnc(C)s2)cc1-c1ccccc1)C(=O)O` [Example 371], the “% inhibition … at 1 × 10^-5 M” value was found to be 66%. As for `CSCC[C@H](NC(=O)c1ccc(CN2CCC[C@H]2CN2CCCCC2)cc1-c1ccccc1C)C(=O)O` [Example 1125, N-[4-(2-piperidin-1-ylmethylpyrrolidin-1-ylmethyl)-2-(2-methylphenyl)benzoyl]methionine], the inhibition at 0.1 µM (read-out: % inhibition at 0.1 μM (*), Table 6, * = 0.1 μM (footnote), title prints 0.1 mM) came out at 92%. Take `CSCC[C@H](NC(=O)c1ccc(COCc2ccccc2C)cc1-c1ccccc1C)C(=O)[O-].[Li+]` [Example 577]: the “% inhibition … at 1 × 10^-6 M” value was 94%. On the same count and under the same terms, under `CCS(=O)(=O)C[C@H](CC1CCCCC1)NCc1ccc(C(=O)N[C@@H](CCSC)C(=O)O)c(-c2ccccc2C)c1` [Example 620] stands 98%. For `CSCC[C@H](NC(=O)c1ccc(CN(Cc2ccccc2)c2ccc(C(F)(F)F)cc2)cc1-c1ccccc1C)C(=O)O` [Example 853], the “% inhibition … at 1 × 10^-8 M” value is 85%. The % inhibition is the change of the read-out against control, counted positive when it falls. A high value points to strong suppression. Take `CCCCN(CCN1CCCCC1)Cc1ccc(C(=O)N[C@@H](CCSC)C(=O)O)c(-c2ccccc2C)c1` [Example 1196]: where the note is “Table 6, * = 0.1 μM (footnote), title prints 0.1 mM”, the “% inhibition at 0.1 μM (*)” value is 87%.

As to `CSCC[C@H](NC(=O)c1ccc(CNCC(O)CO)cc1-c1ccccc1)C(=O)O` (stereo partly drawn) [Example 632], the “% inhibition … at 1 × 10^-6 M” value is listed as 43%. On to `Cc1ccccc1-c1cc(CN(C2CC2)C2(CC3CCCCC3)CCCC2)ccc1C(=O)N[C@@H](CCS(C)(=O)=O)C(=O)O` [Example 346], for which the inhibition at 1 µM was found to be 98%. For `CSCC[C@H](NC(=O)c1ccc(CNc2ccc(F)cc2)cc1-c1ccccc1)C(=O)O` [Example 687], the “% inhibition … at 1 × 10^-5 M” value is given as 78%. In the case of `CSCC[C@H](NC(=O)c1ccc(CP(=O)(CC2CCCCC2)CC2CCCCC2)cc1-c1ccccc1C)C(=O)O` [Example 1214, N-[4-(Di(cylohexylmethyl)(oxophosphinyl)methyl)-2-(2-methylphenyl)benzoyl]methionine], the inhibition at 0.01 µM (read-out: % inhibition at 0.01 μM (**), Table 6, ** = 0.01 μM (footnote), title prints 0.01 mM) was determined as 92%. Take `CCSC[C@H](CC1CCCCC1)N(Cc1ccc(C(=O)N[C@@H](CCSC)C(=O)O)c(-c2ccccc2C)c1)C(=O)c1ccccc1` [Example 949]: the “% inhibition … at 1 × 10^-7 M” value (1 × 10^-7 M (Table 3)) was 57%.

For the compound `CSCC[C@H](NC(=O)c1ccc(COCc2cnc(-c3ccc(Cl)cc3)o2)cc1-c1ccccc1C)C(=O)[O-].[Li+]` [Example 894], where the note is “1 × 10^-7 M (Table 3)”, the “% inhibition … at 1 × 10^-7 M” value is 89%.

As to `CSCCC(NC(=O)c1ccc(NC(=O)Cc2cscn2)cc1-c1ccccc1)C(=O)O` (stereo not drawn) [Example 162], the “% inhibition … at 1 × 10^-6 M” value is 12%. In the case of `CSCC[C@H](NC(=O)c1ccc(COCCc2ccc(Cl)cc2)cc1-c1ccccc1C)C(=O)[O-].[Li+]` [Example 590], the “% inhibition … at 1 × 10^-7 M” value (1 × 10^-7 M (Table 3)) is given as 95%. With `CSCC[C@H](NC(=O)c1ccc(CNc2ccc(OC(F)(F)F)cc2)cc1-c1ccccc1)C(=O)O` [Example 691], the “% inhibition … at 1 × 10^-6 M” value is on record as 34%. With `CSCC[C@H](NC(=O)c1ccc(/C=C/c2ccc(Oc3ccccc3Cl)cc2)cc1-c1ccccc1C)C(=O)O` [Example 854, N-[4-(2-(4-(2-chlorophenoxy)phenyl)ethen-1-yl)-2-(2-methylphenyl)benzovyl]methionine], for the setting “read-out: % inhibition of farnesyltransferase at 1 × 10^-7 M, 1 × 10^-7 M (Table 3)”, the inhibition at 0.1 µM was 78%. Regarding `CSCC[C@H](NC(=O)c1ccc(CNc2ccc(N3CCCCC3)cc2)cc1-c1ccccc1C)C(=O)O` [Example 862], the “% inhibition … at 1 × 10^-6 M” value stood at 95%.

Turning to `CSCC[C@H](NC(=O)c1ccc(COCCCCC2CCCCC2)cc1-c1ccccc1C)C(=O)O` [Example 600], the “% inhibition … at 1 × 10^-7 M” value (1 × 10^-7 M (Table 3)) was determined as 93%.

For `CSCC[C@H](NC(=O)c1ccc(CN(C)C(C)(C)Cc2ccccc2)cc1-c1ccccc1C)C(=O)O` [Example 309], the inhibition at 1 µM came to 98%. As to `CSCC[C@H](NC(=O)c1ccc(CNc2ccc(Oc3ccccc3)cc2)cc1-c1ccccc1)C(=O)O` [Example 701], the “% inhibition … at 1 × 10^-5 M” value was found to be 64%. On to `CSCC[C@H](NC(=O)c1ccc(CSc2nc3ccccc3c(=O)[nH]2)cc1-c1ccccc1C)C(=O)O` [Example 745], for which the “% inhibition … at 1 × 10^-7 M” value (1 × 10^-7 M (Table 3)) amounted to 93%. Take `Cc1ccccc1-c1cc(CN(C2CC2)C2(Cc3ccccc3)CCCC2)ccc1C(=O)N[C@@H](CCS(C)(=O)=O)C(=O)O` [Example 345]: the inhibition at 1 µM was 91%.

In the case of `CSCC[C@H](NC(=O)c1ccc(S(=O)(=O)NC2CCN(Cc3ccccc3)CC2)cc1-c1ccccc1C)C(=O)O` [Example 773, lithium salt], the inhibition at 1 µM is 41%.

For the compound `CSCC[C@H](NC(=O)c1ccc(CNCCN2CCCCC2)cc1-c1ccccc1)C(=O)O` [Example 366], the “% inhibition … at 1 × 10^-5 M” value is recorded as 83%. Consider `CSCC[C@H](NC(=O)c1ccc(OCCCCOc2ccccc2)cc1-c1ccccc1C)C(=O)O` [Example 568], for which the “% inhibition … at 1 × 10^-6 M” value was 93%.

Take `CSCC[C@H](NC(=O)c1ccc(/C=C/CCc2ccccc2)cc1-c1ccccc1C)C(=O)O` [Example 472, N-[4-(4-phenylbut-1-enyl)-2-(2-methylphenyl)benzoyl]methionine]: the inhibition at 1 µM was determined as 97%. For `CCSC[C@H](CC1CCCCC1)N(Cc1ccc(C(=O)N[C@@H](CCSC)C(=O)O)c(-c2ccccc2C)c1)S(=O)(=O)c1ccccc1` [Example 951], for the setting “1 × 10^-7 M (Table 3)”, the “% inhibition … at 1 × 10^-7 M” value turned out to be 71%.

On to `CSCC[C@H](NC(=O)c1ccc(S(=O)(=O)NCCN2CCOCC2)cc1-c1ccccc1C)C(=O)O` [Example 775, lithium salt], for which the inhibition at 1 µM was 32%.

As to `CSCC[C@H](NC(=O)c1ccc(SCCc2ccccc2)cc1-c1ccccc1C)C(=O)O` [Example 498], the “% inhibition … at 1 × 10^-6 M” value is given as 98%.

As to `CSCC[C@H](NC(=O)c1ccc(CNc2cccc(N(C)C)c2)cc1-c1ccccc1)C(=O)O` [Example 683], the “% inhibition … at 1 × 10^-5 M” value worked out at 57%. As for `CSCC[C@H](NC(=O)c1ccc(CN(C(C)C)C2(Cc3ccccc3)CCC2)cc1-c1ccccc1C)C(=O)O` [Example 331], the inhibition at 1 µM was 98%. Take `CSCC[C@H](NC(=O)c1ccc(COCc2ccsc2)cc1-c1ccccc1C)C(=O)[O-].[Li+]` [Example 274]: the “% inhibition … at 1 × 10^-6 M” value is on record as 94%. On to `CCCCON(CCC1CCCCC1)Cc1ccc(C(=O)N[C@@H](CCS(C)(=O)=O)C(=O)O)c(-c2ccccc2C)c1` [Example 298], for which the inhibition at 1 µM was 43%. Consider `CSCC[C@H](NC(=O)c1ccc(CNc2ccc(N3CCOCC3)cc2)cc1-c1ccccc1C)C(=O)O` [Example 863], for which the “% inhibition … at 1 × 10^-7 M” value (1 × 10^-7 M (Table 3)) amounted to 72%. `CSCC[C@H](NC(=O)c1ccc(CNc2cc(C(=O)O)cc(C(=O)O)c2)cc1-c1ccccc1)C(=O)O` [Example 710]: the “% inhibition … at 1 × 10^-5 M” value came to 45%. For the compound `CSCC[C@H](NC(=O)c1ccc(COCCCC2CCCCC2)cc1-c1ccccc1C)C(=O)O` [Example 405], the “% inhibition … at 1 × 10^-6 M” value worked out at 98%.

As for `CCSC[C@H](CC1CCCCC1)N(Cc1ccc(C(=O)N[C@@H](CCSC)C(=O)O)c(-c2ccccc2C)c1)C(C)=O` [Example 947], for the setting “1 × 10^-7 M (Table 3)”, the “% inhibition … at 1 × 10^-7 M” value came to 79%. For the compound `CSCC[C@H](NC(=O)c1ccc(COCc2oc(-c3ccc(Cl)cc3)c(Cl)c2Cl)cc1-c1ccccc1C)C(=O)[O-].[Li+]` [Example 829], the “% inhibition … at 1 × 10^-8 M” value was found to be 92%. Regarding `CSCC[C@H](NC(=O)c1ccc(CNc2ccc(CCO)cc2)cc1-c1ccccc1)C(=O)O` [Example 694], the “% inhibition … at 1 × 10^-6 M” value amounted to 45%.

The record behind these values is patent publication US6221865A, “Inhibitors of protein isoprenyl transferases” (priority 1998, dated 2001).
